Test results published in PMC9879403, “Oncolytic strategy using new bifunctional HDACs/BRD4 inhibitors against virus-associated lymphomas” (PLOS Pathogens, 2023).
Read-outs that look alike come from different tables or passages of the source.

Legend:
[1] = WST-1 cytotoxicity assay, BL-41 (KSHV negative lymphoma); assay type: cell-based; conditions: human; 50% cytotoxic concentration, 72 h, WST-1; read-out: KSHV negative lymphomas CC50, BL-41
Description: (§1) Fig 2 Identification of newly synthesized dual inhibitors with anti-PEL activities. (A) The binding mode of (+)-JQ1 with BRD4^BD1 (PDB: 3MXF). BRD4^BD1 is shown as hot pink cartoon with gray surface. Asn140 in BRD4^BD1 is shown as sticks and colored in following pattern: atom C hot pink, atom N dark blue, and atom O yellow. (+)-JQ1 is shown as sticks and colored in following patten: atom C hot pink, atom N dark blue, atom O yellow, atom S golden, and atom Cl green. The solvent exposed region (SEG) of (+)-JQ1 are indicated with white arrow. (B) The binding modes of SAHA and entinostat with HDAC2 (PDB: 3MAX). HDAC2 is shown as blue cartoon with gray surface. Asp181 and His183 in HDAC2 are shown as sticks and colored in following pattern: atom C blue, atom N dark blue, and atom O yellow. The catalytic zinc ion in the active site of HDAC2 is shown as black sphere. SAHA is shown as sticks and colored in following pattern: atom C green, atom N dark blue, and atom O yellow. Entinostat is shown as sticks and colored in following pattern: atom C hot pink, atom N dark blue, and atom O yellow. The SEG of SAHA or entinostat is indicated with white arrow. Hydrogen bonds (H-bonds) are presented by red dash lines. (C) The HDACs/BRD4 dual inhibitors 002-011 were designed by fusing the key pharmacophores of (+)-JQ1 (pink) and HDAC inhibitors (blue), SAHA or entinostat, via various chemical linkers (green). (D) Anti-PEL activities of the new compounds. Five KSHV positive and two KSHV negative lymphoma cell lines were treated with indicated concentrations of these compounds for 72 h. Then the cytotoxicity was determined using the WST-1 assay. (+)-JQ1, SAHA and entinostat were used for the comparisons as single inhibitors. The CC50 for each compound was calculated using GraphPad Prism 5.0 software. Error bars represent S.D. for 3 independent experiments.
(§2) The cell viability following treatment with compounds was assessed by the WST-1 assay (Roche, Indianapolis, Indiana, USA) according to the manufacturer’s protocol as described previously. The absorbance signal was measured using a microplate reader (Biotek Synergy 2). The 50% cytotoxic concentration (CC50) for each compound was calculated from these dose-response curves using the software GraphPad Prism v5.0. Data were normalized as the fold change compared to the DMSO control.

[2] = WST-1 cytotoxicity assay, BJAB (KSHV negative lymphoma); assay type: cell-based; conditions: human; 50% cytotoxic concentration, 72 h, WST-1; read-out: KSHV negative lymphomas CC50, BJAB
Description: as §1, §2

BJAB.219 = experiment: WST-1 cytotoxicity assay, BJAB.219 (KSHV-infected lymphoma); assay type: cell-based; conditions: 72 h, read-out: KSHV-infected lymphomas CC50, BJAB.219
Description: as §1
BCBL-1 and iSLK.219 cells were kindly provided by Dr. Pinghui Feng (University of Southern California). BL-41, BJAB, BCP-1, BC-1, BC-3, JSC-1, HUVEC cells were purchased from American Type Culture Collection (ATCC), and cultured as recommended by the manufacturer. For making BJAB.219 cells, BJAB cells were infected with rKSHV.219 stock by spinoculation as previously reported by centrifugation at 1500×g for 60 min [31]. Then, puromycin (10 μg/ml) was added into the medium at 72 h post-infection and the medium containing puromycin was replaced twice a week. After 6-week high concentration of puromycin selection, BJAB.219 cells were then cultured in the medium with 0.5 μg/ml puromycin.
The cell viability following treatment with compounds was assessed by the WST-1 assay (Roche, Indianapolis, Indiana, USA) according to the manufacturer’s protocol as described previously. The absorbance signal was measured using a microplate reader (Biotek Synergy 2). […]

BC-1 = experiment: WST-1 cytotoxicity assay, BC-1 (KSHV+ PEL); assay type: cell-based; conditions: Homo sapiens, BC1, 72 h
Description: as §1
Fig 4 Identification of anti-PEL activities for compound 009 stereoisomers. (A) The chemical structures of anti-HDACs/BRD4 bifunctional molecules 009P1 and 009P2, as well as anti-HDACs or anti-BRD4 mono-functional molecules 009N1, 009N2, 009N3, and 009N4. (B-C) Four KSHV+ PEL cell lines were treated with indicated concentrations of 009P1, 009P2 or 009N1-N4 for 72 h, then the cytotoxicity was determined using the WST-1 assay. (D-I) BCBL-1 cells were treated with these compounds at the respective 2× CC50 for 24 h, then cell cycle (D-F) and apoptosis (G-I) were measured by flow cytometry analysis. Error bars represent S.D. for 3 independent experiments, ** = p<0.01 (vs vehicle control).
as §2

BCBL-1 cells = experiment: PEL xenograft model (BCBL-1 cells i.p.)
Method: (A) Plasma concentrations of (+)-JQ1, SAHA, or 009P1 after a single administration of 50 mg per kg body (i.p. injection) were presented as mean ± SD (n = 3 mice per time point). (B-E) NOD/SCID mice were injected i.p. with BCBL-1 cells. 72 h later, the compounds or vehicle were administered i.p. as described in the Methods, and weights were recorded weekly. At the end of the treatment period, the splenic tissues were collected from the vehicle or compound treated mice, compared and processed with the H&E and IHC staining. (F) Plasma concentrations of 009P1 after a single administration of 50 mg per kg body (oral gavage) were presented as mean ± SD (n = 3 mice per time point). (G-I) NOD/SCID mice were injected i.p. with BCBL-1 cells. 72 h later, the compounds or vehicle were administered orally as described in the Methods, and weights were recorded weekly.
In all NOD/SCID mice, 6–8-week-old, male (Jackson Laboratory, Ellsworth, Maine, USA), 1 × 10^7 BCBL-1 cells in 200 μL RMPI-1640 without FBS were injected intraperitoneally and then mice were randomized into treatment groups of 6 mice as described previously. The tested compounds or vehicle was administered initially at 72 h after BCBL-1 injections, and continued once daily, 2 days per week for 3 weeks. Weights were recorded weekly as a surrogate measure of tumor progression. At the end of experiment, the spleens of mice were excised for immunoblots and immunohistochemical analyses.
Formalin-fixed, paraffin-embedded tissues were microtome-sectioned to a thickness of 4 μm and placed on electromagnetically charged slides. Immunohistochemistry was performed as described previously, and the c-Myc and H3K9Ac antibodies were purchased from Abcam. Images were collected using an Olympus BX61 microscope equipped with a high resolution DP72 camera and CellSense image capture software.

[3] = Toxicity study, oral administration at 100 mg/kg
HDACs = HDACs signaling by Western blot (H3K9Ac, H4K9Ac, Acetyl-tubulin); assay type: cell-based
KSHV [4] = experiment: Viral DNA levels in PEL cells by qPCR; assay type: cell-based
KSHV [5] = assay type: cell-based
[6] = read-out: KSHV-infected lymphomas CC50, BC-1

SMILES | CC50 at 72 h [1] | CC50 at 72 h [2] | CC50 (BJAB.219) | CC50 (BC-1; [6]) | Tumor infiltration into the spleen (H&E) (BCBL-1 cells; i.p., 50 mg/kg) | Visible toxicity in mice (abnormal weight loss) (BCBL-1 cells; i.p., 50 mg/kg) | Toxicity in the mice [3] | CC50 (BJAB.219; 50% cytotoxic concentration, WST-1) | H3K9Ac, H4K9Ac and Acetyl-tubulin protein levels (HDACs) | Viral DNA levels (KSHV [4]) | CC50 (BC-1; read-out: CC50, BC-1) | PEL tumor progression (ascites formation, spleen enlargement) (BCBL-1 cells; i.p., 20 mg/kg) | Tumor infiltration into the spleen (H&E) (BCBL-1 cells; i.p., 20 mg/kg) | Visible toxicity in mice (abnormal weight loss) (BCBL-1 cells; i.p., 20 mg/kg) | Tumor burden in mice (ascites formation, spleen enlargement) (BCBL-1 cells; oral administration, 20 mg/kg) | H3K9Ac, H4K9Ac and Acetyl-tubulin protein levels (HDACs; BCBL-1 cells, 48 h, Western blot) | Expression of viral genes (LANA, RTA, ORF26) (KSHV [5])
Cc1sc2c(c1C)C(c1ccc(Cl)cc1)=N[C@@H](CC(=O)OC(C)(C)C)c1nnc(C)n1-2 [(+)-JQ1, reference compound] | 680 nM | 1110 nM | ~120 nM | 44 nM | slightly reduced | visible toxicity | severe toxicity |  |  |  |  |  |  |  |  |  | 
O=C(CCCCCCC(=O)Nc1ccccc1)NO [SAHA, suberoylanilide hydroxamic acid, reference compound] | 3940 nM | 3340 nM |  | 1380 nM |  |  |  | 560 nM | upregulated | obviously increased |  |  |  |  |  |  | 
Cc1sc2c(c1C)C(c1ccc(Cl)cc1)=N[C@@H](CC(=O)O[C@H](C)c1ccc(C(=O)Nc3ccccc3N)cc1)c1nnc(C)n1-2 [009P1, (R)-1-(4-((2-aminophenyl)carbamoyl)phenyl)ethyl 2-((S)-4-(4-chlorophenyl)-2,3,9-trimethyl-6H-thieno[3,2-f][1,2,4]triazolo[4,3-a][1,4]diazepin-6-yl)acetate] |  |  |  |  |  |  |  |  |  | slightly increased | 42 nM | dramatically suppressed PEL tumor progression | only diffuse small tumor nodules | not observed | effectively repressed tumor burden | increased | significantly increased
